# Data reported in US6737383B1, “Herbicidal oxadiazolidines” (priority 1999, dated 2004).
# Experiments:
# [1] = system: rape; test: Test B pre/postemergence rape; type: in vivo, Brassica napus
# Method in brief: (§1)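 Herbicidal effect was estimated by eye on a ten-point control scale after plants spent twelve to sixteen days in a greenhouse following soil or foliar treatment. Foliar sprays targeted plants at one to four leaves; all doses were formulated in a non-phytotoxic solvent with surfactant.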
# [2] = system: pigweed; test: Test B pre/postemergence pigweed; type: in vivo, Amaranthus retroflexus
# Method in brief: as §1
# [3] = system: purple nutsedge; test: Test B pre/postemergence purple nutsedge; type: in vivo, Cyperus rotundus; conditions: Postemergence
# Method in brief: as §1
# [4] = system: giant foxtail; test: Test B pre/postemergence giant foxtail; type: in vivo, Setaria faberii
# Method in brief: as §1
# [5] = system: corn; test: Test B pre/postemergence corn; type: in vivo, Zea mays
# Method in brief: as §1
# [6] = system: rice; test: Test B flood test rice; type: in vivo, Oryza sativa
# Method in brief: (§2)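 Plants were grown to the 2-leaf stage before treatment with test chemical, then held in a greenhouse for twelve to sixteen days. Injury was visually rated against untreated controls on a 0–10 scale, where 0 is no effect and 10 is complete control.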
# [7] = system: wild oat; test: Test B pre/postemergence wild oat; type: in vivo, Avena fatua
# Method in brief: as §1
# [8] = system: surinam grass; test: Test B pre/postemergence surinam grass; type: in vivo, Brachiaria decumbens
# Method in brief: as §1
# [9] = system: blackgrass; test: Test B pre/postemergence blackgrass; type: in vivo, Alopecurus myosuroides
# Method in brief: as §1
# [10] = system: velvetleaf; test: Test B pre/postemergence velvetleaf; type: in vivo, Abutilon theophrasti
# Method in brief: as §1
# [11] = system: bedstraw; test: Test B pre/postemergence bedstraw; type: in vivo, Galium aparine
# Method in brief: as §1
# [12] = system: duck salad; test: Test B flood test duck salad; type: in vivo, Heteranthera limosa
# Method in brief: as §2
# [13] = system: soybean; test: Test B pre/postemergence soybean; type: in vivo, Glycine max
# Method in brief: as §1
# [14] = system: morningglory; test: Test B pre/postemergence morningglory; type: in vivo, Ipomoea hederacea
# Method in brief: as §1
# [15] = system: wheat; test: Test B pre/postemergence wheat; type: in vivo, Triticum aestivum
# Method in brief: as §1
# [16] = system: crabgrass; test: Test B pre/postemergence crabgrass; type: in vivo, Digitaria sanguinalis
# Method in brief: as §1
# [17] = Preemergence, Rate 62 g/ha, scale of 0 to 10 where 0 is no effect and 10 is complete control
# [18] = Preemergence, Rate 250 g/ha, scale of 0 to 10 where 0 is no effect and 10 is complete control
# [19] = Preemergence, Rate 500 g/ha, scale of 0 to 10 where 0 is no effect and 10 is complete control
# [20] = Rate 62 g/ha, Postemergence, scale of 0 to 10 where 0 is no effect and 10 is complete control
# [21] = Rate 125 g/ha, Postemergence, scale 0 to 10
# [22] = Rate 125 g/ha, Preemergence, scale of 0 to 10 where 0 is no effect and 10 is complete control
# [23] = Rate 500 g/ha, Postemergence, scale 0 to 10, 0 no effect, 10 complete control
# [24] = Rate 62 g/ha, headed Pre-emergence (flood test species), scale 0 to 10 (0 no effect, 10 complete control)
# [25] = Rate 125 g/ha, Pre-emergence, flood test species, scale 0 to 10 where 0 is no effect and 10 is complete control
# [26] = Rate 250 g/ha, Pre-emergence, flood-test species, scale 0 to 10, 0 is no effect, 10 is complete control
# [27] = Rate 500 g/ha, Pre-emergence, flood test species, scale 0 to 10 (0 no effect, 10 complete control)
compound,measurement,setting,value
Cc1ccccc1N(C(=O)n1oc(=O)n(-c2ccccc2C)c1=O)C(C)C [Compound 236],Rape plant response rating,[1]; [17],0
same,Rape plant response rating,[1]; [18],0
same,"Plant response rating, Rape",[1]; [19],0
same,Rape plant response rating,[1]; [20],0
same,Rape plant response rating,[1]; [21],0
same,Rape plant response rating,[1]; [22],0
same,"Plant response rating (0 to 10; 0 is no effect, 10 is complete control), Rape","[1]; Rate 250 g/ha, Postemergence",0
same,Rape plant response rating,[1]; [23],0
same,Redroot pigweed plant response rating,[2]; [17],0
same,Redroot pigweed plant response rating,[2]; [18],0
same,"Plant response rating, Redroot pigweed",[2]; [19],0
same,Redroot pigweed plant response rating,[2]; [20],0
same,Redroot pigweed plant response rating,[2]; [21],0
same,Redroot pigweed plant response rating,[2]; [22],0
same,"Plant response rating (0 to 10; 0 is no effect, 10 is complete control), Redroot pigweed","[2]; Rate 250 g/ha, Postemergence",0
same,Redroot pigweed plant response rating,[2]; [23],0
same,Nutsedge plant response rating,"[3]; Rate 62 g/ha, scale of 0 to 10 where 0 is no effect and 10 is complete control",0
same,Nutsedge plant response rating,"[3]; Rate 125 g/ha, scale 0 to 10",0
same,"Plant response rating (0 to 10; 0 is no effect, 10 is complete control), Nutsedge",[3]; Rate 250 g/ha,0
same,Nutsedge plant response rating,"[3]; Rate 500 g/ha, scale 0 to 10, 0 no effect, 10 complete control",0
same,Giant foxtail plant response rating,[4]; [17],7
same,Giant foxtail plant response rating,[4]; [18],9
same,"Plant response rating, Giant foxtail",[4]; [19],10
same,Giant foxtail plant response rating,[4]; [20],0
same,Giant foxtail plant response rating,[4]; [21],0
same,Giant foxtail plant response rating,[4]; [22],7
same,"Plant response rating (0 to 10; 0 is no effect, 10 is complete control), Giant foxtail","[4]; Rate 250 g/ha, Postemergence",0
same,Giant foxtail plant response rating,[4]; [23],0
same,Corn plant response rating,[5]; [17],0
same,Corn plant response rating,[5]; [18],0
same,"Plant response rating, Corn",[5]; [19],0
same,Corn plant response rating,[5]; [20],0
same,Corn plant response rating,[5]; [21],0
same,Corn plant response rating,[5]; [22],0
same,"Plant response rating (0 to 10; 0 is no effect, 10 is complete control), Corn","[5]; Rate 250 g/ha, Postemergence",0
same,Corn plant response rating,[5]; [23],0
same,Rice plant response rating,[6]; [24],0
same,Rice plant response rating,[6]; [25],0
same,Rice plant response rating,[6]; [26],0
same,Rice plant response rating,[6]; [27],0
same,Wild oats plant response rating,[7]; [17],0
same,Wild oats plant response rating,[7]; [18],0
same,"Plant response rating, Wild oats",[7]; [19],2
same,Wild oats plant response rating,[7]; [20],0
same,Wild oats plant response rating,[7]; [21],0
same,Wild oats plant response rating,[7]; [22],0
same,"Plant response rating (0 to 10; 0 is no effect, 10 is complete control), Wild oats","[7]; Rate 250 g/ha, Postemergence",0
same,Wild oats plant response rating,[7]; [23],0
same,B. signalgrass plant response rating,[8]; [17],0
same,B. signalgrass plant response rating,"[8]; Preemergence, Rate 250 g/ha, scale 0 to 10, 0 is no effect, 10 is complete control",0
same,"Plant response rating, B. signalgrass",[8]; [19],3
same,B. signalgrass plant response rating,[8]; [20],0
same,B. signalgrass plant response rating,"[8]; Rate 125 g/ha, Postemergence, scale 0 (no effect) to 10 (complete control)",0
same,B. signalgrass plant response rating,[8]; [22],0
same,"Plant response rating (0 to 10; 0 is no effect, 10 is complete control), B. signalgrass","[8]; Rate 250 g/ha, Postemergence",0
same,B. signalgrass plant response rating,[8]; [23],0
same,Blackgrass plant response rating,[9]; [17],0
same,Blackgrass plant response rating,[9]; [18],5
same,"Plant response rating, Blackgrass",[9]; [19],5
same,Blackgrass plant response rating,[9]; [20],0
same,Blackgrass plant response rating,[9]; [21],0
same,Blackgrass plant response rating,[9]; [22],2
same,"Plant response rating (0 to 10; 0 is no effect, 10 is complete control), Blackgrass","[9]; Rate 250 g/ha, Postemergence",0
same,Blackgrass plant response rating,[9]; [23],0
same,Velvetleaf plant response rating,[10]; [17],0
same,Velvetleaf plant response rating,[10]; [18],0
same,"Plant response rating, Velvetleaf",[10]; [19],0
same,Velvetleaf plant response rating,[10]; [20],0
same,Velvetleaf plant response rating,[10]; [21],0
same,Velvetleaf plant response rating,[10]; [22],0
same,"Plant response rating (0 to 10; 0 is no effect, 10 is complete control), Velvetleaf","[10]; Rate 250 g/ha, Postemergence",1
same,Velvetleaf plant response rating,[10]; [23],3
same,Bedstraw plant response rating,[11]; [17],0
same,Bedstraw plant response rating,[11]; [18],0
same,"Plant response rating, Bedstraw",[11]; [19],0
same,Bedstraw plant response rating,[11]; [20],0
same,Bedstraw plant response rating,[11]; [21],0
same,Bedstraw plant response rating,[11]; [22],0
same,"Plant response rating (0 to 10; 0 is no effect, 10 is complete control), Bedstraw","[11]; Rate 250 g/ha, Postemergence",0
same,Bedstraw plant response rating,[11]; [23],4
same,Ducksalad plant response rating,[12]; [24],0
same,Ducksalad plant response rating,[12]; [25],0
same,Ducksalad plant response rating,[12]; [26],0
same,Ducksalad plant response rating,[12]; [27],0
same,Soybean plant response rating,[13]; [17],0
same,Soybean plant response rating,[13]; [18],0
same,"Plant response rating, Soybean",[13]; [19],0
same,Soybean plant response rating,[13]; [20],1
same,Soybean plant response rating,[13]; [21],1
same,Soybean plant response rating,[13]; [22],0
same,"Plant response rating (0 to 10; 0 is no effect, 10 is complete control), Soybean","[13]; Rate 250 g/ha, Postemergence",2
same,Soybean plant response rating,[13]; [23],3
same,Morningglory plant response rating,[14]; [17],0
same,Morningglory plant response rating,[14]; [18],0
same,"Plant response rating, Morningglory",[14]; [19],0
same,Morningglory plant response rating,[14]; [20],4
same,Morningglory plant response rating,[14]; [21],4
same,Morningglory plant response rating,[14]; [22],0
same,"Plant response rating (0 to 10; 0 is no effect, 10 is complete control), Morningglory","[14]; Rate 250 g/ha, Postemergence",5
same,Morningglory plant response rating,[14]; [23],6
same,Wheat plant response rating,[15]; [17],0
same,Wheat plant response rating,[15]; [18],0
same,"Plant response rating, Wheat",[15]; [19],0
same,Wheat plant response rating,[15]; [20],0
same,Wheat plant response rating,[15]; [21],0
same,Wheat plant response rating,[15]; [22],0
same,"Plant response rating (0 to 10; 0 is no effect, 10 is complete control), Wheat","[15]; Rate 250 g/ha, Postemergence",0
same,Wheat plant response rating,[15]; [23],0
same,Crabgrass plant response rating,[16]; [17],2
same,Crabgrass plant response rating,[16]; [18],5
same,"Plant response rating, Crabgrass",[16]; [19],5
same,Crabgrass plant response rating,[16]; [20],0
same,Crabgrass plant response rating,[16]; [21],0
same,Crabgrass plant response rating,[16]; [22],3
same,"Plant response rating (0 to 10; 0 is no effect, 10 is complete control), Crabgrass","[16]; Rate 250 g/ha, Postemergence",0
same,Crabgrass plant response rating,[16]; [23],0
